Experimental data reported in patent US5358947A, “Angiotensin II receptor blocking 2,3-substituted pyrazolo[1,5-a]-1,3,5-triazin-4(3H)-ones” (American Cyanamid Company, priority 1993, dated 1994).
Several values for one entry are separate records, joined by “and”; a condition that tells them apart may be missing. Equal entries are not always repeated.

Test system: ANGIOTENSIN II (AII) VASOPRESSOR RESPONSE
Assay: AII Challenge: angiotensin II (AII) vasopressor response in conscious rats
Type: in vivo
Set-up: Response After AII / Change / Average Change: unit not given here
Settings: for Control Before AII / Change / Response After AII: individual rat; for Control Before AII: in mmHg (unit assumed); for % Inhibition / Average Change: n = 2
How it was run: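 Conscious male Okamoto-Aoki SHR (16-20 weeks, ~330 g), aorta/vena cava cannulated, challenged with AII 0.05 and 0.1 ug/kg i.v. before and at 30-300 min after compound dosed i.v., i.p. or orally. Systolic pressure rise expressed relative to each rat's predose response (100%).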

[1] = 3 mg/kg i.v., AII 0.05 mcg/kg, 30 min post dose
[2] = 3 mg/kg i.v., AII 0.05 mcg/kg, 30 min post dose, listed as Ex. 17
[3] = 3 mg/kg i.v., AII 0.1 mcg/kg, 30 min post dose
[4] = 3 mg/kg i.v., AII 0.1 mcg/kg, 30 min post dose, listed as Ex. 17
[5] = 10 mg/kg i.v., AII 0.05 mcg/kg, 60 min post dose, listed as Ex. 17
[6] = 10 mg/kg i.v., AII 0.05 mcg/kg, 90 min post dose, listed as Ex. 17
[7] = 10 mg/kg i.v., AII 0.05 mcg/kg, 120 min post dose, listed as Ex. 17
[8] = 10 mg/kg i.v., AII 0.05 mcg/kg, 180 min post dose, listed as Ex. 17
[9] = 10 mg/kg i.v., AII 0.05 mcg/kg, 240 min post dose, listed as Ex. 17
[10] = 10 mg/kg i.v., AII 0.05 mcg/kg, 300 min post dose, listed as Ex. 17
[11] = 10 mg/kg i.v., AII 0.1 mcg/kg, 60 min post dose, listed as Ex. 17
[12] = 10 mg/kg i.v., AII 0.1 mcg/kg, 90 min post dose, listed as Ex. 17
[13] = 10 mg/kg i.v., AII 0.1 mcg/kg, 120 min post dose, listed as Ex. 17
[14] = 10 mg/kg i.v., AII 0.1 mcg/kg, 180 min post dose, listed as Ex. 17
[15] = 10 mg/kg i.v., AII 0.1 mcg/kg, 240 min post dose, listed as Ex. 17
[16] = 10 mg/kg i.v., AII 0.1 mcg/kg, 300 min post dose, listed as Ex. 17

CCCCc1nc2ccnn2c(=O)n1Cc1ccc(-c2ccccc2-c2nn[nH]n2)cc1 [Example 17, 2-Butyl-3-[[2'-(1H-tetrazol-5-yl)[1,1'-biphenyl]-4-yl]methyl]pyrazolo[1,5-a]-1,3,5-triazin-4(3H) -one]
Control Before AII [1]: 252
Change [2]: 33 and 30
Response After AII [2]: 285 and 265
Control Before AII [2]: 235
% Inhibition [1]: 34%
Average Change [1]: 31.5
Control Before AII [3]: 255
Change [4]: 25 and 35
Response After AII [4]: 280 and 260
Control Before AII [4]: 225
% Inhibition [3]: 37%
Average Change [3]: 30
Change [5]: 5 and 10
Response After AII [5]: 255 and 245
Control Before AII [5]: 250 and 235
% Inhibition [5]: 84%
Average Change [5]: 7.5
Change [6]: 25
Response After AII [6]: 275 and 255
Control Before AII [6]: 250 and 230
% Inhibition [6]: 47%
Average Change [6]: 25
Change [7]: 25 and 30
Response After AII [7]: 270 and 255
Control Before AII [7]: 245 and 225
% Inhibition [7]: 42%
Average Change [7]: 27.5
Change [8]: 20 and 30
Response After AII [8]: 260 and 240
Control Before AII [8]: 240 and 210
% Inhibition [8]: 47%
Average Change [8]: 25
Change [9]: 25 and 15
Response After AII [9]: 270 and 250
Control Before AII [9]: 245 and 235
% Inhibition [9]: 58%
Average Change [9]: 20
Change [10]: 40 and 30
Response After AII [10]: 290 and 245
Control Before AII [10]: 250 and 215
% Inhibition [10]: 26%
Average Change [10]: 35
Control Before AII (10 mg/kg i.v., AII 0.1 mcg/kg, 60 min post dose): 255
Change [11]: 5 and 10
Response After AII [11]: 260 and 235
Control Before AII [11]: 225
% Inhibition [11]: 84%
Average Change [11]: 7.5
Change [12]: 15 and 35
Response After AII [12]: 265 and 260
Control Before AII [12]: 250 and 225
% Inhibition [12]: 47%
Average Change [12]: 25
Change [13]: 25 and 30
Response After AII [13]: 275 and 260
Control Before AII [13]: 250 and 230
% Inhibition [13]: 42%
Average Change [13]: 27.5
Control Before AII (10 mg/kg i.v., AII 0.1 mcg/kg, 180 min post dose): 240
Change [14]: 30 and 40
Response After AII [14]: 270 and 265
Control Before AII [14]: 225
% Inhibition [14]: 26%
Average Change [14]: 35
Change [15]: 35 and 30
Response After AII [15]: 290 and 270
Control Before AII [15]: 255 and 240
% Inhibition [15]: 32%
Average Change [15]: 32.5
Change [16]: 35 and 25
Response After AII [16]: 285 and 260
Control Before AII [16]: 250 and 235
% Inhibition [16]: 37%
Average Change [16]: 30
